Experimental data taken from US10238702B2, “Pharmaceutical composition, preparation method therefor and use thereof” (SICHUAN JIUZHANG BIOLOGICAL SCIENCE AND TECHNOLOGY CO., LTD, priority 2013, dated 2019).
Marks after values point to notes of the source that are not given here.

Columns and labels:
[1] = test system: mouse peritoneal macrophages; assay: Phagocytosis test of chicken red blood cell; format: in vivo, Kunming mice; settings: intragastric once per day for four weeks, 300 mg/kg (Mannatide 20 mg/kg); for Phagotrophic percentage (%, X ± SD): chicken red blood cells phagocytized by 100 macrophages
Experimental: Kunming mice were randomly divided into seven groups according to gender and body weight, with 12 mice in each group. As the dose design, all groups received one intragastric administration per day at a dose of 0.4 ml/20 g for successive four weeks. Mice were weighed for two times per week, to adjust the drug dosage. 30 minutes after final administration, each mouse in each group was injected intraperitoneally with 5% chicken erythrocyte suspension at a dose of 1.0 ml/mouse. Six hours after injection, animals were sacrificed by cervical dislocation, and received 2 ml physiological saline via peritoneal injection, while the abdomen of mice was gently massaged. Then, one pin hole was cut in the center of peritoneum, and washing water in peritoneal cavity was extracted, dropped on microscope slide, and cultured for 30 min in incubator at 37° C. The solution was washed with normal saline, fixed using methanol, and dyed by Giemsa staining. The numbers of chicken red blood cell phagocytized by 100 macrophages were observed under oil immersion lens. The phagotrophic percentage and the phagotrophic index were calculated according to the following formula, and results were shown in Table 15. [formula] [formula]

oxygen radicals = assay: Metabolism of in vivo oxygen radicals (serum SOD activity, MDA content); design: species or system C57BL/6 mice; settings: blood serum, intragastric once per day for four weeks, 300 mg/kg (IFNa-2b 300 0000 IU)
Experimental: Experimental methods: C57BL/6 mice were randomly divided to eight groups as body weight, with 10 mice in each group. According to the dose design in Table 14, all groups received one intragastric administration per day at a dose of 0.4 ml/20 g for successive four weeks. Mice were weighed for two times per week, to adjust the drug dosage. On the last day of experiment, blood samples were drawn from femoral artery of animals and centrifuged to collect blood serum. Using TBA colorimetric method and xanthine oxidase method, application of sample was performed according to procedures of kit instructions, and absorbance values were measured at wavelengths of 532 nm and 550 nm using UV2300 Ultraviolet spectrophotometer. MDA content and SOD activity were calculated, respectively.

mouse macrophages = assay: Carbon granules clearance test; format: in vivo, Kunming mice; settings: once per day for four weeks, 300 mg/kg (Mannatide 20 mg/kg); for α value (X ± SD): corrected phagotrophic index; for K value (X ± SD): Indian ink via vena caudalis, blood at 1 and 5 min
Experimental: Kunming mice were randomly divided into seven groups according to gender and body weight, with 10 mice in each group. As the dose design in Table 14, all groups were administrated once per day at a dose of 0.4 ml/20 g for successive four weeks. Mice were weighed for two times per week, to adjust the drug dosage. One hour after final administration, each mouse in each group was injected with Indian ink [(1:4)0.1 ml·10 g^−1] via vena caudalis. […] After animals were sacrificed by cervical dislocation, liver and spleen were collected and weighed, to calculate the phagotrophic index K=(log OD^1−log OD2)/(t2−t1) and correct the phagotrophic index α=[body weight/(liver weight+spleen weight)]×K^1/3.

**Q.** How did the “Phagotrophic index (X ± SD)” value [1] turn out when O=C(/C=C/c1ccc(O)c(O)c1)O[C@@H]1C[C@](O)(C(=O)O)C[C@@H](O)[C@H]1O [Chologenic acid, Chlorogenic acid] was run?
**A.** 0.52 ± 0.07

**Q.** And the “Phagotrophic percentage (%, X ± SD)” value [1]?
**A.** 36.58 ± 4.50 %

**Q.** What about the “MDA(nmol/L) (x ± s)” value (oxygen radicals; TBA colorimetric method) of the same compound?
**A.** 27.14 ± 3.41 nmol/L

**Q.** And the “SOD(U/L) (x ± s)” value (oxygen radicals; xanthine oxidase method)?
**A.** 218.73 ± 25.32 ^ U/L

**Q.** And the “α value (X ± SD)” value (mouse macrophages)?
**A.** 3.94 ± 1.05

**Q.** What about the “K value (X ± SD)” value (mouse macrophages) of the same compound?
**A.** 0.019 ± 0.011

**Q.** For Mannatide [reference compound], which “Phagotrophic index (X ± SD)” value [1] is on record?
**A.** 0.57 ± 0.05***^ΔΔ

**Q.** What about the “Phagotrophic percentage (%, X ± SD)” value [1] of the same compound?
**A.** 40.32 ± 2.25***^ΔΔ %

**Q.** What about the “α value (X ± SD)” value (mouse macrophages) of the same compound?
**A.** 4.43 ± 1.06

**Q.** And the “K value (X ± SD)” value (mouse macrophages)?
**A.** 0.019 ± 0.013
